From US20260076923A1, “METHOD AND COMPOSITION TO REDUCE OR INHIBIT ADVANCED GLYCATION END-PRODUCTS” (NANJING NUTRABUILDING BIO-TECH CO., LTD., priority 2023, published 2026) come the findings set out here.

The test system of one assay is CAT. As to the kind of experiment: CAT activity in skin of D-galactose-injected mice. The assay is classed as in vivo, Kunming mice. As to conditions: end of the trial (14th week), 100 mg/kg each s.c. once daily for 6 weeks, compared to non-supplementation group, FIG. 6. As to the method:
(§1) Six-week-old, male, Kunming mice (n=40), weighed about 30±2 g, were obtained from Cavens Lab Animal (Changzhou, China) and housed in a controlled room (25±2° C., 60% relative humidity, 12 h light/dark cycle) with free access to water and standard laboratory diet. After an acclimation period (1 week), mice were randomly divided into four groups. Each mouse's back skin was chosen as the experimental observation area, a razor was used to shave off the back hair. 5% sodium sulfide solution was applied to the back to remove the hair.
(§2) All mice were then injected subcutaneously with same volume of D-galactose (1000 mg/kg), once a day for 8 weeks. During the entire experiment, the daily food intake and weight of each mouse were recorded every day, and the D-galactose injection dose were adjusted according to the weight change.
(§3) The four groups were non-supplement group (Con, Group 1); THC supplement group (100 mg/kg, Group 2); EGT supplement group (100 mg/kg, Group 3); and EGT+THC supplement group (100 mg/kg EGT+100 mg/kg THC, Group 4). Mice in groups 2-4 were injected subcutaneously (s.c.) into their back skins with the corresponding concentration before each major meal once daily for 6 weeks. […]
(§4) Oxidative stress is increased during aging. […] The levels of H2O2, SOD, CAT, GSH, and GSH-Px in the skin were detected with relative kits as reference. […]

Another assay has as its system SOD. As to the kind of experiment: SOD activity in skin of D-galactose-injected mice. It counts as in vivo, Kunming mice. The following applies: end of the trial (14th week), 100 mg/kg each s.c. once daily for 6 weeks, compared to non-supplementation group, FIG. 5. As to the method: as §1, §2, §3, §4
The next assay concerns AGEs. As to the kind of experiment: Measurement of glycation: BSA incubated with D-ribose, fluorescence of the AGEs. As to conditions: BSA 1 mg/ml + D-ribose 10 mM in PBS, 37° C., 10 days; THC 10 mM and/or EGT 10 mM; λex=380 nm, λem=450 nm; FIG. 1. The assay is classed as biochemical, bovine.
In a further assay the test system is GSH. As to the kind of experiment: GSH activity in skin of D-galactose-injected mice. It counts as in vivo, Kunming mice. As to conditions: end of the trial (14th week), 100 mg/kg each s.c. once daily for 6 weeks, compared to non-supplementation group, FIG. 7. As to the method:
as §1, §2, §3, §4

Another assay has as its system GSH-Px. As to the kind of experiment: GSH-Px activity in skin of D-galactose-injected mice. The assay is classed as in vivo, Kunming mice. As to conditions: end of the trial (14th week), 100 mg/kg each s.c. once daily for 6 weeks, compared to non-supplementation group, FIG. 8. As to the method:
as §1, §2, §3, §4

Method for AGEs: The formulation of glycation products was observed placing together a bovine serum albumin (BSA) and D-ribose in the absence of THC and EGT, and in the presence of THC only, EGT only and THC and EGT combination.
Specifically, a solution of BSA at a concentration of 1 mg/ml dissolved in phosphate-buffered saline (PBS) was incubated at 37° C. for 10 days with D-ribose at a concentration of 10 mM, in the absence of THC and EGT (Group 1), and the presence of THC only (10 mM, Group 2), EGT only (10 mM, Group 3) and the THC (10 mM) and EGT (10 mM) combination (Group 4).
So, the glycation was evaluated by measuring the fluorescence of the AGEs at λem=450 nm emitted by each sample after excitation at λex=380 nm. The inhibition of glycation was visualized by the decrease in fluorescence compared with the samples treated with the sugar alone.

For the compound `C[N+](C)(C)[C@@H](Cc1c[nH]c(=S)[nH]1)C(=O)[O-]` [EGT, ergothioneine], the CAT activity entry in the assay with CAT is reported as “significantly improved”. Besides, the SOD activity result in the assay with SOD is on record as “significantly improved”. Besides, the “percentage inhibition of fluorescence of the AGEs relative to the control (anti-glycation activity)” value in the assay with AGEs is on record as “fabulous anti-glycation activity”. Also, in the assay with GSH, the GSH activity result is “significantly improved”. The GSH-Px activity result in the assay on GSH-Px is recorded as “significantly improved”.
